This is an account of results in patent publication US5075449A, “Method of optically resolving (±)-1-(3-pyridylcarbonyl)-5-methyl-2-pyrazoline” (Mitsui Toatsu Chemicals, Inc., priority 1988, dated 1991).

Usually LD50 stands for the dose at which mortality reaches 50%.

For series [1], the system named is infarcted lesions caused by the occlusion of middle cerebral artery in rat. In words: Effect on cerebral ischemic (infarcted) lesions caused by occlusion of middle cerebral artery in rat. The following applies: rat MCA occlusion; for Infarcted lesions (ratio of infarcted lesions to total area) / Reduction ratio of infarcted lesions: i.v. infusion 10 mg/kg/hr for 24 hours; for Infarcted lesions (ratio of infarcted lesions to total area): TTC staining, control group 16.1, * P < 0.05, ** P < 0.001 to control; for Reduction ratio of infarcted lesions: infarcted lesions of control group defined as 100%. It is filed as in vivo, Rat (male Sprague Dawley). The procedure: (§1) Rat middle cerebral artery was occluded according to the method of Tamura et. al. (J. Cerebral Blood Flow and Metabolism, 53-60, 1981).
Male Sprague Dawley rats, aged 8 to 10 weeks, were occluded of their left middle cerebral artery under 2% halothane anesthesia. (-)-1-(3-Pyridylcarbonyl)-5-methyl-2-pyrazoline dissolved in 0.9% physiological saline was infused into rats through the caudal vein at a rate of 10 mg/kg/hr for 24 hours. A control group was intraveneously infused with 0.9% physiological saline for 24 hours. Rats were sacrificed to death 24 hours after the occlusion of the middle cerebral artery and brain was excised from each rat. After staining with TTC, the excised brain was cut in 6 identical parts from its top. Cross sections were photographed to measure the ratio of infarcted lesions to total area with a planimeter so that the reduction ratio of infarcted lesions by the drug administration was calculated, provided that the infarcted lesions of the control group was defined as 100%.

Series [2] relates to cerebral edema caused by the occlusion of rat middle cerebral artery. In words: Suppression of ischemic cerebral edema caused by occlusion of middle cerebral artery in rat. The format is in vivo, Rat (male Sprague Dawley). To be noted: rat MCA occlusion; for Suppression ratio of cerebral edema: i.v. infusion through caudal vein 3 or 10 mg/kg/hr for 24 hours (dose not given), brain water content at 24 hours, * P < 0.05, ** P < 0.001 to control. The method, then: as §1
Male Sprague Dawley rats, aged 8 to 10 weeks, were occluded of their left middle cerebral artery under 2% halothane anesthesia. (-)-1-(3-Pyridylcarbonyl)-5-methyl-2-pyrazoline dissolved in 0.9% physiological saline was infused into rats through the caudal vein at a rate of 3 or 10 mg/kg/hr for 24 hours. Rats were sacrificed to death 24 hours after the occlusion of the middle cerebral artery and brain was excised from each rat to determine the water contents in the two cerebral hemispheres, left and right, by the wet and dry weighing method. The occlusion of middle cerebral artery was also conducted on the control group of rats, and they were subsequently infused with 0.9% physiological saline for 24 hours similarly in the drug-administered group. The suppressive ratio of cerebral edema was determined by the following equation. [formula] Cl: Water contents in left cerebral hemisphere of control group CR: Water contents in right cerebral hemisphere of control group
SL: Water contents in left cerebral hemisphere of drug-administered group
SR: Water contents in right cerebral hemisphere of drug-administered group

A short description of series [3]: Acute toxicity (LD50), intravenous, rat. The format is in vivo. The following applies: in vivo, iv, mortality up to 72 hours after administration. The method, then: (§2) The drug was intraveneously administered to rats and determined the mortality ratio up to 72 hours after the administration, to calculate 50% lethal dose (LD50) by acute toxicity according to the routine method.

The test system of series [4] is rats. In words: Acute toxicity (LD50), intravenous, rat. The following applies: for Acute toxicity LD50: mortality up to 72 hours after administration, 4320 min. It is filed as in vivo. The method, then: as §2
For series [5] the following is noted: literature: Anesthesiology, 47, 285, 1977; Nippon Rinsho, 43, 185, 1985; cited from earlier work.

In the case of `CC1CC=NN1C(=O)c1cccnc1` (racemic) [Racemic modification, (±)-1-(3-Pyridylcarbonyl)-5-methyl-2-pyrazoline], in series [1], the “Infarcted lesions (ratio of infarcted lesions to total area)” value is 11.0% and the “Reduction ratio of infarcted lesions” value is on record as 32.0. In addition, the “Suppression ratio of cerebral edema” value in series [2] is 18.7%. In addition, the LD50 at 72 h in series [3] came to 800 mg/kg.

Take `CC1CC=NN1C(=O)c1cccnc1` (single isomer, unassigned; (+)) [(+)-form, (+)-1-(3-Pyridylcarbonyl)-5-methyl-2-pyrazoline]: the “Suppression ratio of cerebral edema” value in series [2] is 15.7%. Also, the “Acute toxicity LD50” value in series [4] turned out to be 400 mg/kg.

As for `CC1CC=NN1C(=O)c1cccnc1` (single isomer, unassigned; (-)) [(-)-form, (-)-1-(3-Pyridylcarbonyl)-5-methyl-2-pyrazoline], the “Effect on infarcted area (in words)” value in series [1] (10 mg/kg/hr for 24 hours) is “significantly reduced the infarcted area caused by the occlusion of rat middle cerebral artery and it acted more strongly than the racemic modification”. In series [1], the “Infarcted lesions (ratio of infarcted lesions to total area)” value amounted to 8.5% and the “Reduction ratio of infarcted lesions” value came to 48.9. In addition, in series [2], the “Effect on cerebral edema (in words)” value is “significantly depressed cerebral edema caused by the occlusion of the middle cerebral artery in rats and it acted more strongly than the racemic modification or (+)-form”; the “Suppression ratio of cerebral edema” value is reported as 28.4%. In series [4], the “Acute toxicity (in words)” value is recorded as “less than that of the racemic modification or (+)-form” and the “Acute toxicity LD50” value was determined as 1200 mg/kg.

Regarding `CCCC(C)C1(CC)C(=O)NC(=O)NC1=O` (centres unmarked) [pentobarbital], the “Brain protective action / suppression of cerebral edema (in words)” value in series [5] is reported as “protective action of brain against cerebral ischemia”.
